Experimental data as given in US7825256B2, “Inducible nitric oxide synthase dimerization inhibitors” (Kalypsys, Inc., priority 2004, dated 2010).
pEC50: −log10 of the molar value. Counter-ions that a name gives are not always drawn.

Tests used:
hiNOS = molecular target: T1, hiNOS (Homo sapiens, UniProt P35228); assay: DAN assay, hiNOS expressed in transiently transfected HEK293 cells; type: cell-based; settings: HEK293 cells transiently transfected with hiNOS
T1 construct: expressed in transfected cells; host or cells: HEK293
Procedure, shortened: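 Human iNOS, nNOS or eNOS transiently expressed in HEK293 cells, with nNOS and eNOS needing added cofactors for activity. NO production is read as nitrite by fluorometry: 2,3-diaminonaphthalene forms fluorescent […], detecting 10 nM to 10 μM nitrite.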

rat = assay: Capsaicin test (topical capsaicin allodynia); type: in vivo
From the text: Subcutaneous injection of dilute capsaicin into the rat hind paw produces transient but pronounced hyperalgesia, allodynia and pain. This effect may be mitigated by pretreatment with a suitable agent, such as a topical anaesthetic or analgesic, and the extent of this mitigation quantified by evaluation of pain-related behaviors in response to noxious or innocuous stimuli as described above; rats pretreated with a known analgesic display fewer pain and allodynia related behaviors than controls. Compounds may be evaluated for their efficacy as potential analgesics in this manner as well.
Male Lewis rats weighing between 180 and 250 grams are used. The right hind paw is dipped into vehicle (100% acetone) or compound in vehicle for 30 seconds and then allowed to air-dry for 30 sec. To prevent the animal from licking the compound off the paw, the paw is wiped twice with a wet paper towel. At 15 min after application of vehicle or compound, 0.1 mg in 10 μL capsaicin is injected into right hind paw. Measurement of allodynia is performed 0.5 to 1 hour after capsaicin injection.
One procedure for quantifying allodynia measures the rat behavioral response to presentation of von Frey filaments of increasing diameter. Each rat is placed in a small, clear cage on an elevated screen. Beginning with 4.31, the von Frey hair is presented perpendicularly to the right mid-plantar hind paw with sufficient force to cause slight buckling, for 6-8 seconds. If presentation lifts the hind paw it is disregarded, as it changes the nature of the stimulus. A positive response is noted if the paw is sharply withdrawn upon onset or offset of stimulus. Ambulation is considered an ambiguous response and the presentation is repeated. Stimuli are presented in a consecutive fashion. A positive response would call for the presentation of the immediately weaker weight filament next; likewise, no response would call for the immediately stronger. Presentations continue until a series of six consecutive responses from the first change is logged. The next rat is then tested. This procedure is standard in the art for the measurement of allodynia, but any other method known in the art which provides adequate sensitivity and reproducibility may be substituted.

[1] = at 0.5 hr after capsaicin injection
[2] = at 1 hr after capsaicin injection

Structure (SMILES)	pEC50 (hiNOS)	Topical Capsaicin Allodynia (rat; [1])	Topical Capsaicin Allodynia (rat; [2])
CN(CCCNCc1ccccc1)c1nc(-n2ccnc2)ns1 [Example 12, N′-Benzyl-N-(3-imidazol-1-yl-[1,2,4]thiadiazol-5-yl)-N-methyl-propane-1,3-diamine]	< 4.30	− at 0.5 hr ((−) = <15% inhibition)	− at 1 hr ((−) = <15% inhibition)
c1csc(CN(CCCNCc2ccc3c(c2)OCO3)c2nc(-n3ccnc3)ns2)c1 [Example 50, N′-Benzo[1,3]dioxol-5-ylmethyl-N-(3-imidazol-1-yl-[1,2,4]thiadiazol-5-yl)-N-thiophen-2-ylmethyl-propane-1,3-diamine]		+ at 0.5 hr ((+) = >15% inhibition)	+ at 1 hr ((+) = >15% inhibition)
Cc1cc(C2CCC(=O)N2CCNCc2ccc3c(c2)OCO3)nc(-n2ccnc2)n1 (centres unmarked) [Example 138, 1-{2-[(Benzo[1,3]dioxol-5-ylmethyl)-amino]-ethyl}-5-(2-imidazol-1-yl-6-methyl-pyrimidin-4-yl)-pyrrolidin-2-one hydrochloride]	> 6.00		
Cc1cc(C2CCC(=O)N2CCNCc2ccc3c(c2)OCCO3)nc(-n2ccnc2)n1 (centres unmarked) [Example 139, 1-{2-[(2,3-Dihydro-benzo[1,4]dioxin-6-ylmethyl)-amino]-ethyl}-5-(2-imidazol-1-yl-6-methyl-pyrimidin-4-yl)-pyrrolidin-2-one hydrochloride]	> 6.00		
Cc1cc(C2C(c3nccs3)CCN2CCNCc2ccc3c(c2)OCO3)nc(-n2ccnc2)n1 (centres unmarked) [Example 140, Benzo[1,3]dioxol-5-ylmethyl-{2-[2-(2-imidazol-1-yl-6-methyl-pyrimidin-4-yl)-3-thiazol-2-yl-pyrrolidin-1-yl]-ethyl}-amine]	> 6.00		
CCOC(=O)c1csc(C2CCN(CCNCc3ccc4c(c3)OCO4)C2c2cc(C)nc(-n3ccnc3)n2)n1 (centres unmarked) [Example 141, 2-[1-{2-[(Benzo[1,3]dioxol-5-ylmethyl)-amino]-ethyl}-2-(2-imidazol-1-yl-6-methyl-pyrimidin-4-yl)-pyrrolidin-3-yl]-thiazole-4-carboxylic acid ethyl ester]	> 6.00		
Cc1cc(C2CCCCN2CCNCc2ccc3c(c2)OCO3)nc(-n2ccnc2)n1 (centres unmarked) [Example 142, Benzo[1,3]dioxol-5-ylmethyl-{2-[2-(2-imidazol-1-yl-6-methyl-pyrimidin-4-yl)-piperidin-1-yl]-ethyl}-amine]	> 6.00		
Cc1cc(C(C)(C)CNC(=O)CCc2ccc3c(c2)OCO3)nc(-n2ccnc2)n1 [Example 143, 3-Benzo[1,3]dioxol-5-yl-N-[2-(2-imidazol-1-yl-6-methyl-pyrimidin-4-yl)-2-methyl-propyl]-propionamide]	> 6.00		
Cc1cc(C(C)(C)CNC(=O)NCc2ccc3c(c2)OCO3)nc(-n2ccnc2)n1 [Example 144, 1-Benzo[1,3]dioxol-5-ylmethyl-3-[2-(2-imidazol-1-yl-6-methyl-pyrimidin-4-yl)-2-methyl-propyl]-urea]	> 6.00		
CN(CCCNCc1ccc2c(c1)OCO2)c1nc(-n2cncn2)ns1 [Example 145, N′-Benzo[1,3]dioxol-5-ylmethyl-N-methyl-N-(3-[1,2,4]triazol-1-yl-[1,2,4]thiadiazol-5-yl)-propane-1,3-diamine]	< 4.30		

More lines, main results first:

pEC50 (hiNOS)	Structure (SMILES)	Topical Capsaicin Allodynia (rat; [1])	Topical Capsaicin Allodynia (rat; [2])
> 6.00	Cc1cc(CNC(=O)NCCc2ccc3c(c2)OCO3)nc(-n2ccnc2)n1 [Example 13, 1-(2-Benzo[1,3]dioxol-5-yl-ethyl)-3-(2-imidazol-1-yl-6-methyl-pyrimidin-4-ylmethyl)-urea]	− at 0.5 hr ((−) = <15% inhibition)	+ at 1 hr ((+) = >15% inhibition)
> 6.00	O=C(NCCc1ccc2c(c1)OCO2)[C@H]1C[C@@H](O)CN1c1nc(-n2ccnc2)ns1 [Example 28, (2R,4R)-4-Hydroxy-1-(3-imidazol-1-yl-[1,2,4]thiadiazol-5-yl)-pyrrolidine-2-carboxylic acid (2-benzo[1,3]dioxol-5-yl-ethyl)-amide]	+ at 0.5 hr ((+) = >15% inhibition)	+ at 1 hr ((+) = >15% inhibition)
> 6.00	O=C(NCCc1ccc2c(c1)OCO2)[C@H]1CCCN1c1nc(-n2ccnc2)ns1 [Example 29, (R)-1-(3-Imidazol-1-yl-[1,2,4]thiadiazol-5-yl)pyrrolidine-2-carboxylic acid (2-benzo[1,3]dioxol-5-yl-ethyl)-amide]	− at 0.5 hr ((−) = <15% inhibition)	+ at 1 hr ((+) = >15% inhibition)
> 6.00	Cc1cc(C(C)NCCNCc2ccc3c(c2)OCO3)nc(-n2ccnc2)n1 (centres unmarked) [Example 38, N-Benzo[1,3]dioxol-5-ylmethyl-N′-[1-(2-imidazol-1-yl-6-methyl-pyrimidin-4-yl)-ethyl]-ethane-1,2-diamine]	+ at 0.5 hr ((+) = >15% inhibition)	+ at 1 hr ((+) = >15% inhibition)
> 6.00	c1cn(-c2nsc(N(CCCNCc3ccc4c(c3)OCO4)Cc3nccs3)n2)cn1 [Example 49, N′-Benzo[1,3]dioxol-5-ylmethyl-N-(3-imidazol-1-yl-[1,2,4]thiadiazol-5-yl)-N-thiazol-2-ylmethyl-propane-1,3-diamine]	+ at 0.5 hr ((+) = >15% inhibition)	+ at 1 hr ((+) = >15% inhibition)
> 6.00	CN(CCCN(CC(N)=O)c1nc(-n2ccnc2)ns1)Cc1ccc2c(c1)OCO2 [Example 59, 2-[[3-(Benzo[1,3]dioxol-5-ylmethyl-methyl-amino)-propyl]-(3-imidazol-1-yl-[1,2,4]thiadiazol-5-yl)-amino]-acetamide]	+ at 0.5 hr ((+) = >15% inhibition)	+ at 1 hr ((+) = >15% inhibition)
> 6.00	CNC(=O)C1CCN(CCNCc2ccc3c(c2)OCO3)C1c1cc(C)nc(-n2ccnc2)n1 (centres unmarked) [Example 137, 2-(2-(1H-Imidazol-1-yl)-6-methylpyrimidin-4-yl)-1-(2-(benzo[d][1,3]dioxol-5-ylmethylamino)ethyl)-N-methylpyrrolidine-3-carboxamide]		
